Measurements from patent US6489098B1, “Means and methods for monitoring nucleoside reverse transcriptase inhibitor antiretroviral therapy and guiding therapeutic decisions in the treatment of HIV/AIDS” (ViroLogic, Inc., priority 1998, dated 2002).
Values joined by “and” are separate entries in the source; they are usually repeats but may differ in a detail not shown here. Identical values can stand only once. “Also recorded” adds a separate entry of the source.

Test system: HIV-1 RT mutant resistance test vector T69SSA
Test: Phenotypic susceptibility assay, site directed RTV T69SSA
Format: cell-based
Conditions: RTV with T69SSA vs wild type RTV
Experimental: (§1) Resistance tests were carried out with resistance test vectors using two host cell types. Resistance test vector viral particles were produced by a first host cell (the resistance test vector host cell) that was prepared by transfecting a packaging host cell with the resistance test vector and the packaging expression vector. The resistance test vector viral particles were then used to infect a second host cell (the target host cell) in which the expression of the indicator gene is measured.
(§2) The resistance test vectors containing a functional luciferase gene cassette were constructed and host cells were transfected with the resistance test vector DNA. The resistant test vectors contained patient-derived reverse transcriptase and protease sequences that were either susceptible or resistant to the antiretroviral agents, such as nucleoside reverse transcriptase inhibitors, non-nucleoside reverse transcriptase inhibitors and protease inhibitors. The resistance test vector viral particles produced by transfecting the resistance test vector DNA into host cells, either in the presence or absence of protease inhibitors, were used to infect target host cells grown either in the absence of NRTI or NNRTI or In the presence of increasing concentrations of the drug. The amount of luciferase activIty produced in infected target host cells in the presence of drug was compared to the amount of luciferase produced in infected target host cells in the absence of drug. Drug resistance was measured as the amount of drug required to inhibit by 50% the luciferase activity detected in the absence of drug (Inhibitory concentration 50%, IC50). The IC50 values were determined by plotting percent drug inhibition vs. log 10 drug concentration.
(§3) Host cells were seeded in 10-cm-diameter dishes and were transfected several days after plating with resistance test vector plasmid DNA and the envelope expression vector. Transfections were performed using a calcium-phosphate precipitation procedure. The cell culture media containing the DNA precipitate was replaced with fresh medium, from one to 24 hours, after transfection. Cell culture media containing resistance test vector viral particles was harvested one to four days after transfection and was passed through a […] filter before being stored at −80° C. HIV capsid protein (p24) levels in the harvested cell culture media were determined by an EIA method as described by the manufacturer (SIAC; Frederick, Md.). Before infection, target cells (293 and 293/T) were plated in cell culture media. Control infections were performed using cell culture media from mock transfections (no DNA) or transfections containing the resistance test vector plasmid DNA without the envelope expression plasmid. One to three or more days after infectIon the media was removed and cell lysis buffer (Promega) was added to each well. Cell lysates were assayed for luciferase activity (FIG. 3). The inhibitory effect of the drug was determined using the following equation:
% luciferase inhibition=1−(RLUluc[drug]÷RLUluc)×100
where RLUluc [drug] is the relative light unit of luciferase activity in infected cells in the presence of drug and RLUluc is the Relative Light Unit of luciferase activity in infected cells in the absence of drug. IC50 values were obtained from the sigmoidal curves that were generated from the data by plotting the percent inhibition of luciferase activity vs. the log 10 drug concentration. The drug inhibition curves are shown in (FIG. 3).
Genotypic changes that are observed to correlate with changes in phenotypic patterns of drug susceptibility are evaluated by construction of resistance test vectors containing the specific mutation on a defined, wild-type (drug susceptible) genetic background. Mutations may be incorporated alone and/or in combination with other known drug resistance mutations that are thought to modulate the susceptibility of HIV to a certain drug or class of drugs. […]

Structure (SMILES)	effect on susceptibility (words)
Cc1cn([C@H]2C=C[C@@H](CO)O2)c(=O)[nH]c1=O [d4T, stavudine]	did not reduce d4T susceptibility
Cc1cn([C@H]2C[C@H](N=[N+]=[N-])[C@@H](CO)O2)c(=O)[nH]c1=O [AZT, zidovudine]	small but significant change in susceptibility; also recorded: reduced AZT susceptibility slightly

Same assay, conditions: RTV with T69SSA vs wild type RTV; 3 replicates

Structure (SMILES)	Average fold reduction in susceptibility
Cc1cn([C@H]2C=C[C@@H](CO)O2)c(=O)[nH]c1=O [d4T, stavudine]	2 fold and less than two-fold and 1.58 fold
Cc1cn([C@H]2C[C@H](N=[N+]=[N-])[C@@H](CO)O2)c(=O)[nH]c1=O [AZT, zidovudine]	approximately two-fold and 1.98 fold
Nc1ccn([C@H]2CC[C@@H](CO)O2)c(=O)n1 [ddC, zalcitabine]	1.55 fold
O=c1[nH]cnc2c1ncn2[C@H]1CC[C@@H](CO)O1 [ddI, didanosine]	1.32 fold
Nc1nc(NC2CC2)c2ncn([C@H]3C=C[C@@H](CO)C3)c2n1 [ABC, abacavir]	2.52 fold

Test system: HIV-1 RT mutant resistance test vector Q151M-RTV
Test: Phenotypic susceptibility assay, site directed RTV Q151M
Format: cell-based
Conditions: RTV with Q151M vs control RTV
Experimental: as §1, §2, §3
% luciferase inhibition=1−(RLUluc[drug]÷RLUluc)×100 […]
Genotypic changes that are observed to correlate with changes in phenotypic patterns of drug susceptibility are evaluated by construction of resistance test vectors containing the specific mutation on a defined, wild-type (drug susceptible) genetic background. […]

Structure (SMILES)	fold reduction in susceptibility
Cc1cn([C@H]2C=C[C@@H](CO)O2)c(=O)[nH]c1=O [d4T, stavudine]	approximately three-fold

Same assay, conditions: RTV with Q151M vs wild type RTV

Structure (SMILES)	effect on susceptibility (words)
Cc1cn([C@H]2C=C[C@@H](CO)O2)c(=O)[nH]c1=O [d4T, stavudine]	less susceptible to d4T than the wild type control RTV; also recorded: reduced d4T and AZT susceptibility
Cc1cn([C@H]2C[C@H](N=[N+]=[N-])[C@@H](CO)O2)c(=O)[nH]c1=O [AZT, zidovudine]	Significant changes in susceptibility; also recorded: reduced d4T and AZT susceptibility
Nc1ccn([C@H]2CC[C@@H](CO)O2)c(=O)n1 [ddC, zalcitabine]	Significant changes in susceptibility
O=c1[nH]cnc2c1ncn2[C@H]1CC[C@@H](CO)O1 [ddI, didanosine]	Significant changes in susceptibility

Test system: patient RTV-136, RTV-240, RTV-955 and RTV-960 (A62V, V75I, F77L, F116Y, Q151M)
Test: Phenotypic susceptibility assay, patient isolates with multi-NRTI resistance mutations
Format: cell-based, HIV-1
Conditions: four patient viruses with multi-NRTI resistance mutations (FIG. 4)
Experimental: In these experiments patient-derived segment(s) corresponding to the HIV protease and reverse transcriptase coding regions were either patient-derived segments amplified by the reverse transcription-polymerase chain reaction method (RT-PCR) using viral RNA isolated from viral particles present in the serum of HIV-infected individuals or were mutants of wild type HIV-1 made by site directed mutagenesis of a parental clone of resistance test vector DNA. Isolation of viral RNA was performed using standard procedures (e.g. RNAgents Total RNA Isolation System, Promega, Madison Wis. or RNAzol, Tel-Test, Friendswood, Tex.). The RT-PCR protocol was divided into two steps. A retroviral reverse transcriptase [e.g. Moloney MuLV reverse transcriptase (Roche Molecular Systems, Inc., Branchburg, N.J.), or avian myeloblastosis virus (AMV) reverse transcriptase, (Boehringer Mannheim, Indianapolis, Ind.)] was used to copy viral RNA into cDNA. The cDNA was then amplified using a thermostable DNA polymerase [e.g. Taq (Roche Molecular Systems, Inc., Branchburg, N.J.), Tth (Roche Molecular Systems, Inc., Branchburg, N.J.), PrimeZyme (isolated from Thermus brockianus, Biometra, Gottingen, Germany)] or a combination of thermostable polymerases as described for the performance of “long PCR” (Barnes, W. M., (1994) Proc. Natl. Acad. Sci, USA 91, 2216-2220) [e.g. Expand High Fidelity PCR System (Taq+Pwo), (Boehringer Mannheim. Indianapolis, Ind.) OR GeneAmp XL PCR kit (Tth+Vent), (Roche Molecular Systems, Inc., Branchburg, N.J.)].
Resistance test vectors incorporating the “test” patient-derived segments were constructed as described in PCT International Application No. PCT/US97/01609, filed Jan. 29, 1997 using an amplified DNA product of 1.5 kB prepared by RT-PCR using viral RNA as a template and oligonucleotides PDSApa (1) and PDSAge (2) as primers, followed by digestion with ApaI and AgeI or the isoschizimer PINAI. To ensure that the plasmid DNA corresponding to the resultant resistance test vector comprises a representative sample of the HIV viral quasi-species present in the serum of a given patient, many (>100) independent E. coli transformants obtained in the construction of a given resistance test vector were pooled and used for the preparation of plasmid DNA.
as §1
as §2, with “The IC50 values were determined by plotting percent drug inhibition vs. log 10 drug concentration.” left out

Structure (SMILES)	fold reduced susceptibility
Cc1cn([C@H]2C=C[C@@H](CO)O2)c(=O)[nH]c1=O [d4T, stavudine]	4-12 fold

Same assay, conditions: patient RTV pools with MDR mutations

Structure (SMILES)	susceptibility compared to wild-type control RTV
Cc1cn([C@H]2C=C[C@@H](CO)O2)c(=O)[nH]c1=O [d4T, stavudine]	decrease in susceptibility to d4T; also recorded: decreases in susceptibility
Cc1cn([C@H]2C[C@H](N=[N+]=[N-])[C@@H](CO)O2)c(=O)[nH]c1=O [AZT, zidovudine]	decreases in susceptibility
Nc1ccn([C@H]2CC[C@@H](CO)O2)c(=O)n1 [ddC, zalcitabine]	decreases in susceptibility
O=c1[nH]cnc2c1ncn2[C@H]1CC[C@@H](CO)O1 [ddI, didanosine]	decreases in susceptibility
Nc1nc(NC2CC2)c2ncn([C@H]3C=C[C@@H](CO)C3)c2n1 [ABC, abacavir]	decreases in susceptibility

Test system: ZDV-resistant HIV isolates
Test: not given
Conditions: cited from earlier work

Structure (SMILES)	cross-resistance of ZDV-resistant strains
Cc1cn([C@H]2C=C[C@@H](CO)O2)c(=O)[nH]c1=O [d4T, stavudine]	Cross-resistance
Nc1ccn([C@H]2CC[C@@H](CO)O2)c(=O)n1 [ddC, zalcitabine]	no evidence that mutations selected for during ZDV monotherapy influence sensitivity
O=c1[nH]cnc2c1ncn2[C@H]1CC[C@@H](CO)O1 [ddI, didanosine]	no evidence that mutations selected for during ZDV monotherapy influence sensitivity

Test system: HIV with RT Met184→Val mutation
Test: not given
Conditions: Met184→Val (M184V); cited from earlier work

Structure (SMILES)	fold increase in IC50 / reduction in susceptibility
Nc1ccn([C@H]2CC[C@@H](CO)O2)c(=O)n1 [ddC, zalcitabine]	four-fold to eight-fold
O=c1[nH]cnc2c1ncn2[C@H]1CC[C@@H](CO)O1 [ddI, didanosine]	four-fold to eight-fold
Nc1nc(NC2CC2)c2ncn([C@H]3C=C[C@@H](CO)C3)c2n1 [ABC, abacavir]	2-5 fold
